The record followed here is patent publication US20220031607A1, “INJECTION COMPOSITION CONTAINING FAB I INHIBITOR, AND PREPARATION METHOD THEREFOR” (CRYSTALGENOMICS, INC., priority 2019, published 2022).

Values after ≈ are worked out from the molar mass of the structure shown. Read-outs that look alike come from different tables or passages of the source.

Common to all, as to format: cell-based
The test system of experiment [1] is Methicillin-susceptible Staphylococcus aureus strains. As to the kind of experiment: Drug susceptibility (MIC) of methicillin-susceptible clinical isolates. On the procedure: (§1) In order to verify the inhibitory effect of the compound of formula 1 on antibiotic-resistant strains, drug susceptibility was evaluated by treating the compound of formula 1 with Staphylococcus aureus phenotype isolated from each patient. In an in vitro test for antibiotic development, the most important result can be MIC90 (minimum inhibitory concentration required to inhibit the growth of 90% of the total bacterial population). […] Appelbaum at Hershey Hospital who is recognized for its authority in the field of anti-infection worldwide.

Experiment [2] relates to Methicillin-resistant Staphylococcus aureus (MRSA) strains. As to the kind of experiment: Drug susceptibility (MIC) of MRSA clinical isolates. On the procedure:
as §1

Experiment [3] deals with Staphylococcus aureus ATCC 29213 (MSSA, standard strain). In words: Susceptibility test (MIC), standard strain. Here is the method:
(§2) For the compound of formula 1, pharmacokinetic/pharmacodynamic experiments were conducted using a mouse infection model. To this end, experiments were conducted with Staphylococcus aureus ATCC 29213 (MSSA, standard strain) and 13B-382 (MRSA, clinical strain). As a medium, Mueller-Hinton broth or Cation-adjusted Mueller-Hinton broth was used. For the susceptibility test (minimum inhibitory concentration (MIC)), the compound of formula 1 was used.

In experiment [4] the test system is Staphylococcus aureus 13B-382 (MRSA, clinical strain). In words: Susceptibility test (MIC), clinical strain. Here is the method: as §2
The mark [5] stands for this setting: Staphylococcus aureus, Methicillin-susceptible, n = 103, read-out: MIC50.
The mark [6] stands for this setting: Staphylococcus aureus, Methicillin-susceptible, n = 103, read-out: MIC90.
[7] abbreviates: Staphylococcus aureus, MRSA, Methicillin-resistant, n = 100, read-out: MIC50.
Where [8] appears, read: Staphylococcus aureus, MRSA, Methicillin-resistant, n = 100, read-out: MIC90.
Setting [9] is: Methicillin-susceptible, n = 103.

With `CC[C@H]1OC(=O)[C@H](C)[C@@H](O[C@H]2C[C@@](C)(OC)[C@@H](O)[C@H](C)O2)[C@H](C)[C@@H](O[C@@H]2O[C@H](C)C[C@H](N(C)C)[C@H]2O)[C@](C)(O)C[C@@H](C)CN(C)[C@H](C)[C@@H](O)[C@]1(C)O` [Azithromycin], the MIC50 is 1 µg/mL (≈ 1.34 µM) in experiment [1] (setting [5]) and above 64 µg/mL in experiment [2] (setting [7]). Besides, the MIC90 in experiment [1] (setting [6]) and in experiment [2] (setting [8]) was above 64 µg/mL in each case.

Take `CCCCCCCCCC(=O)N[C@@H](Cc1c[nH]c2ccccc12)C(=O)N[C@H](CC(N)=O)C(=O)N[C@@H](CC(=O)O)C(=O)N[C@@H]1C(=O)NCC(=O)N[C@@H](CCCN)C(=O)N[C@@H](CC(=O)O)C(=O)N[C@H](C)C(=O)N[C@@H](CC(=O)O)C(=O)NCC(=O)N[C@H](CO)C(=O)N[C@@H]([C@H](C)CC(=O)O)C(=O)N[C@@H](CC(=O)c2ccccc2N)C(=O)O[C@@H]1C` [Daptomycin]: the “MIC Range” value lay within 0.25 to 2.0 µg/mL in experiment [1] (setting [9]) and 0.25 to 4.0 µg/mL in experiment [2] (Methicillin-resistant, n = 100). Further, the MIC50 in experiment [1] (setting [5]) is 1 µg/mL (≈ 0.617 µM); in experiment [2] (setting [7]), 0.5 µg/mL (≈ 0.309 µM). Also, the MIC90 in experiment [1] (setting [6]) stood at 1 µg/mL (≈ 0.617 µM); in experiment [2] (setting [8]), 0.5 µg/mL (≈ 0.309 µM).

Take `C[C@H]1COc2c(N3CCN(C)CC3)c(F)cc3c(=O)c(C(=O)O)cn1c23` [Levofloxacin]: the “MIC Range” value in experiment [1] (setting [9]) was at most 0.06 to 32.0 µg/mL. Further, the MIC50 was found to be 0.25 µg/mL (≈ 0.692 µM) in experiment [1] (setting [5]) and 1 µg/mL (≈ 2.77 µM) in experiment [2] (setting [7]). Besides, the values for the MIC90 in experiment [1] (setting [6]) and in experiment [2] (setting [8]) were 4 µg/mL (≈ 11.1 µM) and above 32 µg/mL, respectively.

As to `CC(=O)NC[C@H]1CN(c2ccc(N3CCOCC3)c(F)c2)C(=O)O1` [Linezolid], the “MIC Range” value in experiment [1] (setting [9]) was in the range of 0.25 to 2.0 µg/mL; in experiment [2] (Methicillin-resistant, n = 100), 0.25 to 2.0 µg/mL. Further, the MIC50 in experiment [1] (setting [5]) and in experiment [2] (setting [7]) was 1 µg/mL (≈ 2.96 µM) throughout. For the same compound, the MIC90 in experiment [1] (setting [6]) and in experiment [2] (setting [8]) was 2 µg/mL (≈ 5.93 µM) each time.

For the compound `Cc1onc(-c2ccccc2)c1C(=O)N[C@@H]1C(=O)N2[C@@H]1SC(C)(C)[C@@H]2C(=O)O` [Oxacillin], the MIC in experiment [3] (Staphylococcus aureus ATCC 29213, read-out: MIC) amounted to 0.25 µg/mL (≈ 0.623 µM); in experiment [4] (Staphylococcus aureus 13B-382, read-out: MIC), 16 µg/mL (≈ 39.9 µM).

Consider `CN[C@H](CC(C)C)C(=O)N[C@H]1C(=O)N[C@@H](CC(N)=O)C(=O)N[C@H]2C(=O)N[C@H]3C(=O)N[C@H](C(=O)N[C@H](C(=O)O)c4cc(O)cc(O)c4-c4cc3ccc4O)[C@H](O)c3ccc(c(Cl)c3)Oc3cc2cc(c3O[C@@H]2O[C@H](CO)[C@@H](O)[C@H](O)[C@H]2O[C@H]2C[C@](C)(N)[C@H](O)[C@H](C)O2)Oc2ccc(cc2Cl)[C@H]1O` [Vancomycin], for which the “MIC Range” value in experiment [1] (setting [9]) fell in the range of 1.0 to 2.0 µg/mL. In addition, the MIC50 in experiment [1] (Staphylococcus aureus) amounted to 1 µg/mL (≈ 0.69 µM); in experiment [2] (Staphylococcus aureus, MRSA), 1 µg/mL (≈ 0.69 µM). Besides, the MIC90 in experiment [1] (Staphylococcus aureus) was 2 µg/mL (≈ 1.38 µM); in experiment [2] (Staphylococcus aureus, MRSA), 2 µg/mL (≈ 1.38 µM). For the same compound, the MIC in experiment [2] (Staphylococcus aureus, MRSA / VRSA) was above 64 µg/mL; in experiment [3] (Staphylococcus aureus) it was 0.5 µg/mL (≈ 0.345 µM); in experiment [4] (Staphylococcus aureus), 1 µg/mL (≈ 0.69 µM).

For the compound Teicoplanin, in experiment [1] (setting [9]), the MIC50 amounted to 1 µg/mL, the MIC90 was 2 µg/mL and the “MIC Range” value lay within 0.125 to 8.0 µg/mL. In experiment [2] (Methicillin-resistant, n = 100), this compound displayed an MIC50 of 1 µg/mL and an MIC90 of 2 µg/mL.
